{
  "source": "patent US20240010681A1",
  "about": "“PEPTIDES AND METHODS OF USE” (REALTA LIFE SCIENCES, INC., priority 2020, published 2024)",
  "test": "Pharmacokinetics, metabolite profiles and excretion of [14C]-PIC1-dPEG24 after single IV dose",
  "assay_type": "in vivo, rat",
  "experimental": "[…]. The six rats in Group 3 and Group 4 were further divided into two subgroups for serial blood collections at 10, 30 min and 1, 2, 3, 4, 6, 8, 24, and 48 hr. Blood was pooled by equal volume across animals at each time point, and aliquots (˜200 μL) of pooled blood were removed at each time point for total radioactivity, and the rest of blood samples were centrifuged to obtain plasma. Bile, urine, feces, and cage wash samples were collected up to 72 hr in bile duct cannulated (BDC) rats, and up to 168 hr in intact rats, and terminal blood samples were collected at the end of study (72 hr or 168 hr post-doses). The total radioactivity concentrations in the excreta, blood and plasma were determined by homogenization, combustion and/or liquid scintillation counting (LSC). The metabolite profiles and structure characterization were conducted in pooled plasma, urine, and bile samples using LC-UV/MS as well as radioactive detection. […].\nThe radioactive profiles of rat plasma samples for the low dose group and the high dose group were qualitatively similar.",
  "data": [
    {"smiles": "CC[C@H](C)[C@H](N)C(=O)N[C@@H](C)C(=O)N[C@@H](CC(C)C)C(=O)N[C@H](C(=O)N[C@@H](CC(C)C)C(=O)N[C@@H](CCC(=O)O)C(=O)N1CCC[C@H]1C(=O)N[C@H](C(=O)N[C@@H](CS)C(=O)N[C@@H](CS)C(=O)N[C@@H](CCC(N)=O)C(=O)N[C@@H](CCC(=O)O)C(=O)N[C@@H](CCCNC(=N)N)C(=O)N[C@@H](C)C(=O)N[C@@H](C)C(=O)NCCOCCOCCOCCOCCOCCOCCOCCOCCOCCOCCOCCOCCOCCOCCOCCOCCOCCOCCOCCOCCOCCOCCOCCOCCC(=O)O)[C@@H](C)CC)[C@@H](C)CC", "note": "[[^14C]-PIC1-dPEG24]", "values": [
      {"measurement": "unchanged parent compound in urine", "setting": "20 and 200 mg/kg dose", "value": "not detectable"},
      {"measurement": "unchanged parent compound and M2768 together in pooled plasma", "setting": "8 hr time point, small radioactive peak at 30 min post-IV-injection", "value": "still detectable"},
      {"measurement": "route of elimination of related radioactivity", "setting": "male BDC and intact rats, single IV 20 and 200 mg/kg", "value": "urinary excretion was major route of elimination"},
      {"measurement": "half-life", "setting": "rat, in vivo, intact rats, IV 20 and 200 mg/kg, read-out: plasma elimination half-lives for total radioactivity", "value": "≥ 40", "unit": "h"},
      {"measurement": "dosed radioactivity recovered within 24 hr post-dose", "setting": "single IV 20 or 200 mg/kg, mainly via urine", "value": "> 70 % of the dose"}
    ]}
  ]
}
